For this test, the target named is T1, dihydrofolate reductase (DHFR) from chicken liver (Gallus gallus, UniProt P00378).
T1 sequence (P00378 1-189): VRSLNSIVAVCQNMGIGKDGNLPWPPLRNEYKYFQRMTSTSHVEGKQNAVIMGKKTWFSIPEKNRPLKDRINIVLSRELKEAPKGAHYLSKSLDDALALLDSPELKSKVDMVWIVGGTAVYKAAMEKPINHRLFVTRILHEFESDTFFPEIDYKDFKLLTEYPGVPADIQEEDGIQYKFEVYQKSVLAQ
The test is described as follows: DHF-dependent NADPH oxidation, absorbance at […] nm. It is filed as biochemical. As to conditions: 0.187 mM DHF, 0.137 mM NADPH, 0.5 M KCl, 0.05 M Tris-HCl pH 7.5, 25°C, 40 min; partially purified enzyme 35 μg/ml; sample released from PEG40 conjugate at pH 3.0, equipotent to MTX-hexamethylenamine.

As to `CN(Cc1cnc2nc(N)nc(N)c2n1)c1ccc(C(=O)N[C@@H](CCC(=O)NCCCCCCN)C(=O)O)cc1` [MTX-hexamethylenamine], the IC50 (in general, the concentration that inhibits the measured activity by half) was found to be 0.19 ± 0.007 µM.

For the origin of these results see publication PMC4942054 (PLoS ONE, 2016).
